Values of other authors as cited in patent US6379294B1, “Process for preparing esterquats” (Akzo Nobel N.V., priority 1999, dated 2002).

Conditions: salts of the tertiary amines as such; from Klomp, Kruka, Reijnhart, IBC Conference 1998

For `CCCCCCCCCCN(CCCC)CCCC` [di-n-butyl decyl amine], the “Inhibition of the growth of gas hydrates” value is given as “inhibited the growth of gas hydrates”.

For `CCCCN(CCCC)CCCC` [tri-n-butyl amine], the “Inhibition of the growth of gas hydrates” value is given as “inhibited the growth of gas hydrates”.
